The source of these data is US8148403B2, “Substituted piperidyl-propane-thiols” (Boehringer Ingelheim International GmbH, priority 2006, dated 2012).

On to `CCc1c(C2CCN(CCCSc3ccc(F)cc3)CC2)c2ccc(F)cc2n1-c1nc(C)ccc1O` [Example 3], for which the melting point (in general, the temperature, or range, at which the solid turns liquid) amounted to 142 °C.
